Experimental data reported in patent US8664272B2, “Composition and methods for the treatment of myelodysplastic syndrome and acute myeloid leukemia” (Temple University—Of the Commonwealth System of Higher …, priority 2006, dated 2014).

Tests used:
HL-60 cell line = details: cited from earlier work
[1] = system: myelodysplastic syndrome patients; details: cited from earlier work
HL-60 cells = experiment: Cytotoxicity of drug combinations towards HL-60 cells (WST-1 assay, median-effect analysis); type: cell-based, human; details: single agent, concentrations higher than 500 nM, 72 h
Experimental: Human promyelocytic leukemia cell line HL-60 were obtained from American Type Culture Collection. The cells were maintained in RPMI 1640 medium supplemented with 10% FBS, penicillin, (50 U/mL), streptomycin, (50 μg/mL). Cell cultures were maintained at 37° C. in 5% CO2 humidified atmosphere. Cells were counted in a hemocytometer, using Trypan blue staining as an indicator of viability.
The test compound, or combination of compounds, was added in 50 μL volume into flat-bottom 96-well plates. Control cultures received the same amount of medium without the test compound. HL-60 cells (1×10^6 cells/mL) were suspended in growth medium and dispensed in 50 μL aliquots into the well containing the compound. The plates were incubated at 37° C. (5% CO2) for 72 h. Cytotoxicity was then determined using the WST-1 assay. In the WST-1 assay cell viability is determined by incubating the cells for a further period of 0.5 to 4 h in the presence of the tetrazolium salt 4-(3-(4-iodophenyl)-2-(4-nitrophenyl)-2H-5-tetrazolio]-1,3-benzene disulfonate. In the presence of viable cells, the compound is reduced by mitochondrial dehydrogenases to a fluorescent product. The absorbance was measured against a background control without cell, in a microtiter plate reader (Bio-Tek Instruments, Elx 800) at 450 nm with a reference wavelength of 630 nm. […]

[2] = subcutaneous 75 mg/m^2/day for 7 days every 4 weeks, phase 3

| SMILES | apoptosis (HL-60 cell line) | significant side-effects ([1]; clinical trials) | patients responded completely [1, 2] [%] | patients responded partially [1, 2] [%] | response rate [1, 2] [%] | cell death (HL-60 cells) |
| --- | --- | --- | --- | --- | --- | --- |
| Nc1ncn([C@@H]2O[C@H](CO)[C@@H](O)[C@H]2O)c(=O)n1 [Azacitidine, 5-azacytidine] | induces apoptosis | nausea, anemia, thrombocytopenia, vomiting, pyrexia, leukopenia, diarrhea, fatigue, injection site erythema, constipation, neutropenia, and ecchymosis | 5 | 10 | 15 | – |
| COc1cc(OC)c(/C=C/S(=O)(=O)Cc2ccc(OC)c(NCC(=O)[O-])c2)c(OC)c1.[Na+] [Compound A, (E)-2-(5-((2,4,6-trimethoxystyrylsulfonyl)methyl)-2-methoxyphenylamino)acetic acid sodium salt] | – | – | – | – | – | virtually complete cell death |
